In patent US20060211739A1, “Use of selective P2X7 receptor antagonists” (priority 2005, published 2006):
Where a name gives a salt, the structure may show the parent alone.

| Compound | melting point [°C] |
| --- | --- |
| Clc1ccc(-c2nnnn2Cc2ccccc2)s1 (as salt: hydrochloride) [Example 50, 1-benzyl-5-(5-chlorothien-2-yl)-1H-tetraazole] | 176 to 177 |
| Cn1cncc1Cn1nnnc1-c1cccc(Cl)c1Cl (as salt: hydrochloride) [Example 37, 5-(2,3-dichlorophenyl)-1-[(1-methyl-1H-imidazol-5-yl)methyl]-1H-tetraazole] | 166 to 168 |
| Cc1ncccc1Cn1nnnc1-c1cc(Cl)ccc1Cl [Example 44, 3-{[5-(2,5-dichlorophenyl)-1H-tetraazol-1-yl]methyl}-2-methylpyridine] | 172 to 174 |
| Clc1cccc(-c2nnnn2Cc2cscn2)c1Cl (as salt: hydrochloride) [Example 31, 5-(2,3-dichlorophenyl)-1-(1,3-thiazol-4-ylmethyl)-1H-tetraazole] | 153 to 154 |
| Cc1ncccc1Cn1nnnc1-c1cccc(Cl)c1Cl.Cl | 104 to 105 |
| Cc1nc(Cn2nnnc2-c2cccc(Cl)c2Cl)cs1 (as salt: hydrochloride) [Example 32, 5-(2,3-dichlorophenyl)-1-[(2-methyl-1,3-thiazol-4-yl)methyl]-1H-tetraazole] | 156 to 158 |
| CCOC(=O)c1nocc1Cn1nnnc1-c1cccc(Cl)c1Cl (as salt: hydrochloride) [Example 34, ethyl 4-{[5-(2,3-dichlorophenyl)-1H-tetraazol-1-yl]methyl}isoxazole-3-carboxylate] | 161 to 163 |
| Cc1noc(C)c1Cn1nnnc1-c1cccc(Cl)c1Cl (as salt: hydrochloride) [Example 38, 5-(2,3-dichlorophenyl)-1-[(3,5-dimethylisoxazol-4-yl)methyl]-1H-tetraazole] | 176 to 178 |
| Cl.Clc1ccc(Cl)c(-c2nnnn2Cc2cccnc2)c1 | 200 to 201 |
| Cc1[nH]cnc1Cn1nnnc1-c1cccc(Cl)c1Cl (as salt: hydrochloride) [Example 35, 5-(2,3-dichlorophenyl)-1-[(5-methyl-1H-imidazol-4-yl)methyl]-1H-tetraazole] | 151 to 153 |
| Cc1nc(C)c(Cn2nnnc2-c2cccc(Cl)c2Cl)s1 (as salt: hydrochloride) [Example 36, 5-(2,3-dichlorophenyl)-1-[(2,4-dimethyl-1,3-thiazol-5-yl)methyl]-1H-tetraazole] | 174 to 175 |
| Cc1ccnc(C)c1Cn1nnnc1-c1cccc(Cl)c1Cl (as salt: hydrochloride) [Example 30, 3-{[5-(2,3-dichlorophenyl)-1H-tetraazol-1-yl]methyl}-2,4-dimethylpyridine] | 146 to 148 |
| Brc1ccc(-c2nnnn2Cc2ccccc2)s1 (as salt: hydrochloride) [Example 51, 1-benzyl-5-(5-bromothien-2-yl)-1H-tetraazole] | 196 to 197 |
| Cc1ccncc1Cn1nnnc1-c1cccc(Cl)c1Cl (as salt: hydrochloride) [Example 29, 3-{[5-(2,3-dichlorophenyl)-1H-tetraazol-1-yl]methyl}-4-methylpyridine] | 154 to 156 |
